Source: patent US4588740A, “Pharmaceutical methods using 4-aminoalkyl-2(3H)-indolones” (priority 1983, dated 1986)

Tests used:
[1] = system: spontaneously hypertensive rats; experiment: intravenous infusion in spontaneously hypertensive rats; type: in vivo, rat
Excerpt: (§1) Intravenous infusion of this species of this invention in the DOCA-salt hypertensive and spontaneously hypertensive rats reduced blood pressure and heart rate.

[2] = system: presynaptic α-dopaminergic receptors (D2 -receptors); experiment: D2-agonist selectivity (general statement); settings: peripheral
Excerpt: Otherwise speaking, the main focus of action is at the presynaptic α-dopaminergic receptors which may also be called "D2 -receptors." Activation of the D2 -receptors on the sympathetic nerve terminals inhibits the release of norepinephrine, thereby, promoting vasodilation, among other beneficial cardiovascular actions and decreasing sympathetic side-effects caused by norepinephrine release in certain abnormal cardiovascular conditions.

[3] = system: conscious DOCA salt hypertensive rats; experiment: oral dosing in conscious DOCA salt hypertensive rats; type: in vivo, rat; settings: oral doses of 10 mg/kg
cardio-accelerator nerve = cardio-accelerator nerve preparation in vivo in the dog
[4] = system: DOCA-salt hypertensive rats; experiment: intravenous infusion in DOCA-salt hypertensive rats; type: in vivo, rat
Excerpt: as §1

D2 -receptors = target: T1, D2 -receptors (Oryctolagus cuniculus, UniProt G1T1Q0); experiment: perfused rabbit ear artery test
T1 construct: In the perfused rabbit ear artery test; from tissue; host or cells: perfused rabbit ear artery (receptors on sympathetic nerve terminals)

[5] = absorption from the gastrointestinal tract of rats; type: in vivo, rat; settings: oral, compared with the 7-hydroxy congener
perfused hind limb = perfused hind limb preparation in vivo in the dog

T1 sequence (G1T1Q0 1-443): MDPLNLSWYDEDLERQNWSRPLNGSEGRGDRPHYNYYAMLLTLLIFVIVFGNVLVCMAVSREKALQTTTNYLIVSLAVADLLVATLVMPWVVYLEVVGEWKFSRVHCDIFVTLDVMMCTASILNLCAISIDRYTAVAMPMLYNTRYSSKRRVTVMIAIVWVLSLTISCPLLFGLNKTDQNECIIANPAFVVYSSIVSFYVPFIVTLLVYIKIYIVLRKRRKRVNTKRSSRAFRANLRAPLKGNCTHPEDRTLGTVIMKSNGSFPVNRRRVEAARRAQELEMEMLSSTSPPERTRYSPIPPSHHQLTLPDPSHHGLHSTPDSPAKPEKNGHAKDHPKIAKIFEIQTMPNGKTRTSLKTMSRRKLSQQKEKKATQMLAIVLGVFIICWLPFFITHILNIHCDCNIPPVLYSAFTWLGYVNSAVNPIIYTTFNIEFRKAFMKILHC

CCCN(CCC)CCc1cccc2c1CC(=O)N2.Cl [4-(2-di-n-propylaminoethyl)-2(3H)-indolone hydrochloride]
blood pressure [1]: reduced | heart rate [1]: reduced | D2-agonist selectivity [2]: selective peripheral D2 -agonists | anti-hypertensive effect [3]: demonstrated an anti-hypertensive effect | activity in vivo (cardio-accelerator nerve): active | blood pressure [4]: reduced | heart rate [4]: reduced | EC50 (D2 -receptors): 72 nM | absorption from the gastrointestinal tract [5]: more readily absorbed | activity in vivo (perfused hind limb): active | tachyphylaxis (perfused hind limb): did not cause tachyphylaxis
